Measurements reported in PubChem BioAssay AID1549 (Sanford-Burnham Center for Chemical Genomics, 2009).
Active and inactive are the calls of the source. No rule for the calls is given here.

Molecular target: Influenza A virus M2 proton channel (A/TW/4845/1999 H1N1)
Assay: M2 proton channel binding, NMR based, influenza A virus H1N1 strain (AID 1549)
Conditions: NMR binding screen, M2 protein

SMILES | Kd
O=C(O)c1scc2c1CCCC2 | > 4 mM (inactive)
CCOC(=O)c1sc(SC)c2c1CCCC2O (stereo not given) | > 4 mM (inactive)
O=C(O)CSCc1c(F)cccc1Cl | > 4 mM (inactive)
COn1c(=O)c(C)[n+]([O-])c2ccccc21 | > 4 mM (inactive)
COC(=O)[C@@H]1OC(=O)C2OC23[C@@]1(C)CCC1[C@@]2(C)CCC(=O)C(C)(C)C2C[C@@H](OC(C)=O)[C@]13C (stereo not given in full) | > 4 mM (inactive)
O=C(Cc1cccs1)Nc1ccccn1 | > 4 mM (inactive)
C=C(C)[C@@H]1CC[C@]2(CO)CC[C@]3(C)[C@H](CCC4[C@@]5(C)CC[C@H](O)C(C)(C)C5CC[C@]43C)C12 (stereo not given in full) | > 4 mM (inactive)
O=c1c2ccccc2nc2n1CCCCN2 | > 4 mM (inactive)
COc1c2c(cc3c1OCO3)C13C=C[C@H](OC)CC1N(C2)CC3O (stereo not given in full) | > 4 mM (inactive)
Nc1nc2ccccc2n1CCN1CCCC1 | > 4 mM (inactive)
Cc1cccc(NS(=O)(=O)c2cccs2)n1 | > 4 mM (inactive)
CC(=O)N=c1cccc(NC(C)=O)n1O | > 4 mM (inactive)
O=C(Nc1ccccc1)c1cnc2n(c1=O)CCS2 | > 4 mM (inactive)
O=c1[nH]c2sc3c(c2c2nncn12)CCCC3 | > 4 mM (inactive)
Nn1c(CN2CCCCC2)nc2ccccc2c1=O | > 4 mM (inactive)
Nc1ncnc2c1ncn2C1O[C@H](COP(=O)(O)O)[C@@H](O)[C@H]1O (stereo not given in full) | > 4 mM (inactive)
C=C1C2CC[C@@]3(C)[C@H](c4ccoc4)OC(=O)C[C@]13O[C@H]1CC(=O)C(C)(C)C(CC(=O)OC)C21C (stereo not given in full) | > 4 mM (inactive)
Nc1ccccc1N=C1CNC(=O)C1 | > 4 mM (inactive)
O=C(CCc1ccc(O)cc1)c1c(O)cc(O)cc1O | > 4 mM (inactive)
CC1(C)CC(=O)c2cnn(-c3nc4ccccc4[nH]3)c2C1 | > 4 mM (inactive)
COCC(=O)N1CCCc2ccccc21 | > 4 mM (inactive)
COC(=O)c1oc2ccc(Cl)cc2c1NC(C)=O | > 4 mM (inactive)
COc1cc(C/C=C/c2ccccc2)c(OC)cc1O | > 4 mM (inactive)

SMILES | Kd
CC(C)=CCCC1(C)C=Cc2c(O)c3c(c(CC=C(C)C)c2O1)OC12C(=CCCC1C(C)(C)O[C@@]2(C/C=C(\C)C(=O)O)C(=O)O)C3=O (stereo not given in full) | > 4 mM (inactive)
CCN1C(=O)N(CO)C2C1N(C)C(=O)N2C (stereo not given) | > 4 mM (inactive)
CNc1nnc(CSc2nc(C)cc(C)n2)s1 | > 4 mM (inactive)
CN1CC(=O)Nc2ccc([N+](=O)[O-])cc2C1=O | > 4 mM (inactive)
COc1cc(C(C)=O)ccc1OCC(O)Cn1ccnc1 (stereo not given) | > 4 mM (inactive)
O=C(O)Cn1nnn(-c2ccccc2)c1=S | > 4 mM (inactive)
Cc1ccccc1N1C(=O)CC(=O)NC1=O | > 4 mM (inactive)
COc1ccc2cnn(-c3ccccc3)c(=O)c2c1OC | > 4 mM (inactive)
CCc1ccc(C(=O)N2CCCC2)s1 | > 4 mM (inactive)
C=CCNC(=O)c1ccc(Cl)cc1Cl | > 4 mM (inactive)
CN(C)Cc1nc2c([nH]1)c(=O)[nH]c(=O)n2C | > 4 mM (inactive)
O=C(Nc1cnccn1)c1ccncc1 | > 4 mM (inactive)
CC(=O)Nc1ccc2c(c1)CCCC2=O | > 4 mM (inactive)
CS/C(N)=C\C(C)=O | > 4 mM (inactive)
COc1ccc(O)c(-c2cn[nH]c2-c2cccs2)c1 | > 4 mM (inactive)
O=C(NC(=O)N1CCOCC1)c1ccccc1 | > 4 mM (inactive)
Brc1ccc(-c2nc(-c3ccncc3)no2)o1 | > 4 mM (inactive)
O=C(CSc1nc2ccccc2[nH]1)N1CCCCC1 | > 4 mM (inactive)
c1coc(CNc2nc(-c3ccncc3)cs2)c1 | > 4 mM (inactive)
CN1C(=O)C2C=CC1C1C(=O)N(c3ccccc3)C(=O)C21 (stereo not given) | > 4 mM (inactive)
CC(=O)OCc1cc(=O)n(C)c(=O)n1C | > 4 mM (inactive)
O=C(/C=C/c1ccccc1)c1ccc(O[C@@H]2O[C@H](CO)[C@@H](O)[C@H](O)[C@H]2O)cc1O | > 4 mM (inactive)
